Assay results published in PMC5766581, “NF-κB inducing kinase is a therapeutic target for systemic lupus erythematosus” (Nature Communications, 2018).

Experiments:
C57BL/6 mice = experiment: Delayed-type hypersensitivity model; format: in vivo, mouse; details: 200 mg/kg BID P.O.
Protocol: Mice were immunized with OVA (100 μg, SC) (Sigma) in complete Freund’s adjuvant (Spectrum Chemicals and Laboratory Products) on day 0 and then challenged again with OVA (10 μg in PBS, SC right ear) on day 6. Ear thickness was measured by calipers, and unchallenged ear thickness was subtracted from OVA challenged ear thickness after 24 and 44 h. […] Investigators were not blinded to experimental samples.

ZAP-70 = molecular target: T1, ZAP-70 (Homo sapiens, UniProt P43403); experiment: SelectScreen kinase panel; format: biochemical
T1 construct: purchased Invitrogen / ThermoFisher SelectScreen
Protocol: (§1) The ability of NIK to catalyze the hydrolysis of adenosine-5′-triphosphate (ATP) was monitored using the Transcreener ADP (adenosine-5′-diphosphate) assay (Bell Brook Labs, Fitchburg, WI). Purified human NIK kinase domain (a.a. 340–694) (0.5 nM) or mouse NIK kinase domain (a.a. 329–675) (1 nM) derived from a baculovirus-infected insect cell expression system was incubated with test compounds for 0.5–2 h in 50 mM HEPES buffer (pH 7.2) containing 10 mM MgCl2, 2 mM dithiothreitol, 10 μM ATP, 0.01% Triton X-100, 0.1% gamma-globulins from bovine blood, 1% dimethylsulfoxide (DMSO), 7 μg/mL ADP antibody and 5 nM ADP-MR121 633 tracer. Reactions were quenched by the addition of 20 mM EDTA and 0.01% Brij 35. The tracer bound to the antibody was displaced by the ADP generated during the NIK reaction, which caused a decrease in fluorescence polarization that was measured by laser excitation at 633 nm with a Fluorescence Correlation Spectroscopy Plus reader (Evotec AG). Equilibrium dissociation constant (Ki) values for NIK inhibitors are calculated from plots of activity vs. inhibitor concentration using Morrison’s quadratic equation that accounts for the potential of tight binding, and by also applying the conversion factor that accounted for competitive inhibition and the concentration of substrate used in the assay relative to its Michaelis constant (Km). The Ki values with hPKD1 (PKCμ) were determined using the same assay conditions as for NIK. Ki measurements for hKHS1 and hLRRK2, as well as broad kinase selectivity profiling for SMI1, were carried out by Invitrogen using their SelectScreen kinase assay panel (ThermoFisher Scientific, Madison, WI). The vendor offered two types of kinase activity assays, a peptide phosphorylation assay (Z′-LYTE) and an ADP quantitation assay (Adapta), as well as one type of kinase ATP site competitive binding assay (LanthaScreen). See vendor web site for technology and protocol details for each specific kinase assay.
(§2) The average % Inhibition of each kinase is reported (Supplementary Table 1).

Frk = molecular target: T2, Frk (Homo sapiens, UniProt P42685); experiment: SelectScreen kinase panel; format: biochemical
T2 construct: purchased Invitrogen / ThermoFisher SelectScreen
Protocol: as §1, §2

CDK7/cyclinH = molecular target: T3, CDK7/cyclinH (Homo sapiens, UniProt P50613); experiment: SelectScreen kinase panel; format: biochemical
T3 construct: purchased Invitrogen / ThermoFisher SelectScreen
Protocol: as §1, §2

BrSK1 = molecular target: T4, BrSK1 (Homo sapiens, UniProt Q8TDC3); experiment: SelectScreen kinase panel; format: biochemical
T4 construct: purchased Invitrogen / ThermoFisher SelectScreen
Protocol: as §1, §2

DYRK4 = molecular target: T5, DYRK4 (Homo sapiens, UniProt Q9NR20); experiment: SelectScreen kinase panel; format: biochemical
T5 construct: purchased Invitrogen / ThermoFisher SelectScreen
Protocol: as §1, §2

Axl = molecular target: T6, Axl (Homo sapiens, UniProt P30530); experiment: SelectScreen kinase panel; format: biochemical
T6 construct: purchased Invitrogen / ThermoFisher SelectScreen
Protocol: as §1, §2

CamKII_alpha = molecular target: T7, CamKII_alpha (Homo sapiens, UniProt Q9UQM7); experiment: SelectScreen kinase panel; format: biochemical
T7 construct: purchased Invitrogen / ThermoFisher SelectScreen
Protocol: as §1, §2

TrkA = molecular target: T8, TrkA (Homo sapiens, UniProt P04629); experiment: SelectScreen kinase panel; format: biochemical
T8 construct: purchased Invitrogen / ThermoFisher SelectScreen
Protocol: as §1, §2

CLK1 = molecular target: T9, CLK1 (Homo sapiens, UniProt P49759); experiment: SelectScreen kinase panel; format: biochemical
T9 construct: purchased Invitrogen / ThermoFisher SelectScreen
Protocol: as §1, §2

ErbB2 = molecular target: T10, ErbB2 (Homo sapiens, UniProt P04626); experiment: SelectScreen kinase panel; format: biochemical
T10 construct: purchased Invitrogen / ThermoFisher SelectScreen
Protocol: as §1, §2

CHK1 = molecular target: T11, CHK1 (Homo sapiens, UniProt O14757); experiment: SelectScreen kinase panel; format: biochemical
T11 construct: purchased Invitrogen / ThermoFisher SelectScreen
Protocol: as §1, §2

MARK3 = molecular target: T12, MARK3 (Homo sapiens, UniProt P27448); experiment: SelectScreen kinase panel; format: biochemical
T12 construct: purchased Invitrogen / ThermoFisher SelectScreen
Protocol: as §1, §2

MARK1 = molecular target: T13, MARK1 (Homo sapiens, UniProt Q9P0L2); experiment: SelectScreen kinase panel; format: biochemical
T13 construct: purchased Invitrogen / ThermoFisher SelectScreen
Protocol: as §1, §2

PKC_alpha = molecular target: T14, PKC_alpha (Homo sapiens, UniProt P17252); experiment: SelectScreen kinase panel; format: biochemical
T14 construct: purchased Invitrogen / ThermoFisher SelectScreen
Protocol: as §1, §2

RSK1 = molecular target: T15, RSK1 (Homo sapiens, UniProt Q15418); experiment: SelectScreen kinase panel; format: biochemical
T15 construct: purchased Invitrogen / ThermoFisher SelectScreen
Protocol: as §1, §2

CK1_gamma1 = molecular target: T16, CK1_gamma1 (Homo sapiens, UniProt Q9HCP0); experiment: SelectScreen kinase panel; format: biochemical
T16 construct: purchased Invitrogen / ThermoFisher SelectScreen
Protocol: as §1, §2

Ret = molecular target: T17, Ret (Homo sapiens, UniProt P07949); experiment: SelectScreen kinase panel; format: biochemical
T17 construct: purchased Invitrogen / ThermoFisher SelectScreen
Protocol: as §1, §2

MST2 = molecular target: T18, MST2 (Homo sapiens, UniProt Q13188); experiment: SelectScreen kinase panel; format: biochemical
T18 construct: purchased Invitrogen / ThermoFisher SelectScreen
Protocol: as §1, §2

SGK3 = molecular target: T19, SGK3 (Homo sapiens, UniProt Q96BR1); experiment: SelectScreen kinase panel; format: biochemical
T19 construct: purchased Invitrogen / ThermoFisher SelectScreen
Protocol: as §1, §2

P38_beta = molecular target: T20, P38_beta (Homo sapiens, UniProt Q15759); experiment: SelectScreen kinase panel; format: biochemical
T20 construct: purchased Invitrogen / ThermoFisher SelectScreen
Protocol: as §1, §2

PASK = molecular target: T21, PASK (Homo sapiens, UniProt Q96RG2); experiment: SelectScreen kinase panel; format: biochemical
T21 construct: purchased Invitrogen / ThermoFisher SelectScreen
Protocol: as §1, §2

GRK2 = molecular target: T22, GRK2 (Homo sapiens, UniProt P25098); experiment: SelectScreen kinase panel; format: biochemical
T22 construct: purchased Invitrogen / ThermoFisher SelectScreen
Protocol: as §1, §2

PRAK = molecular target: T23, PRAK (Homo sapiens, UniProt Q8IW41); experiment: SelectScreen kinase panel; format: biochemical
T23 construct: purchased Invitrogen / ThermoFisher SelectScreen
Protocol: as §1, §2

BTK = molecular target: T24, BTK (Homo sapiens, UniProt Q06187); experiment: SelectScreen kinase panel; format: biochemical
T24 construct: purchased Invitrogen / ThermoFisher SelectScreen
Protocol: as §1, §2

PRKAA1 = molecular target: T25, PRKAA1 (Homo sapiens, UniProt Q13131); experiment: SelectScreen kinase panel; format: biochemical
T25 construct: purchased Invitrogen / ThermoFisher SelectScreen
Protocol: as §1, §2

FGFR1 = molecular target: T26, FGFR1 (Homo sapiens, UniProt P11362); experiment: SelectScreen kinase panel; format: biochemical
T26 construct: purchased Invitrogen / ThermoFisher SelectScreen
Protocol: as §1, §2

ZIPK = molecular target: T27, ZIPK (Homo sapiens, UniProt O43293); experiment: SelectScreen kinase panel; format: biochemical
T27 construct: purchased Invitrogen / ThermoFisher SelectScreen
Protocol: as §1, §2

MST4 = molecular target: T28, MST4 (Homo sapiens, UniProt Q9P289); experiment: SelectScreen kinase panel; format: biochemical
T28 construct: purchased Invitrogen / ThermoFisher SelectScreen
Protocol: as §1, §2

HIPK4 = molecular target: T29, HIPK4 (Homo sapiens, UniProt Q8NE63); experiment: SelectScreen kinase panel; format: biochemical
T29 construct: purchased Invitrogen / ThermoFisher SelectScreen
Protocol: as §1, §2

T23 sequence (Q8IW41 whole entry): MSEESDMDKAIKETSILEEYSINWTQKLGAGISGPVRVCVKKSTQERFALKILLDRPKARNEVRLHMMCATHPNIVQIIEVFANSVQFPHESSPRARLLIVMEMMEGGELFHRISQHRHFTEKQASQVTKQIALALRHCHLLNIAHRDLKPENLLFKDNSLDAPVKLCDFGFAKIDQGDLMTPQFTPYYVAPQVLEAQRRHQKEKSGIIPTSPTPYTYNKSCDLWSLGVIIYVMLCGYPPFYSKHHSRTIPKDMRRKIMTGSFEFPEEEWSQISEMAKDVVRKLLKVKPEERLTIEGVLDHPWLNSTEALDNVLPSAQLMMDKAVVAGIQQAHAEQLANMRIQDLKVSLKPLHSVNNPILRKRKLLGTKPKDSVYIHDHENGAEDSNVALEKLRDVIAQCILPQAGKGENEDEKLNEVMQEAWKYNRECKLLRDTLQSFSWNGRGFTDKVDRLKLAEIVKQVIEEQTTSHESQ
T17 sequence (P07949 29-1114): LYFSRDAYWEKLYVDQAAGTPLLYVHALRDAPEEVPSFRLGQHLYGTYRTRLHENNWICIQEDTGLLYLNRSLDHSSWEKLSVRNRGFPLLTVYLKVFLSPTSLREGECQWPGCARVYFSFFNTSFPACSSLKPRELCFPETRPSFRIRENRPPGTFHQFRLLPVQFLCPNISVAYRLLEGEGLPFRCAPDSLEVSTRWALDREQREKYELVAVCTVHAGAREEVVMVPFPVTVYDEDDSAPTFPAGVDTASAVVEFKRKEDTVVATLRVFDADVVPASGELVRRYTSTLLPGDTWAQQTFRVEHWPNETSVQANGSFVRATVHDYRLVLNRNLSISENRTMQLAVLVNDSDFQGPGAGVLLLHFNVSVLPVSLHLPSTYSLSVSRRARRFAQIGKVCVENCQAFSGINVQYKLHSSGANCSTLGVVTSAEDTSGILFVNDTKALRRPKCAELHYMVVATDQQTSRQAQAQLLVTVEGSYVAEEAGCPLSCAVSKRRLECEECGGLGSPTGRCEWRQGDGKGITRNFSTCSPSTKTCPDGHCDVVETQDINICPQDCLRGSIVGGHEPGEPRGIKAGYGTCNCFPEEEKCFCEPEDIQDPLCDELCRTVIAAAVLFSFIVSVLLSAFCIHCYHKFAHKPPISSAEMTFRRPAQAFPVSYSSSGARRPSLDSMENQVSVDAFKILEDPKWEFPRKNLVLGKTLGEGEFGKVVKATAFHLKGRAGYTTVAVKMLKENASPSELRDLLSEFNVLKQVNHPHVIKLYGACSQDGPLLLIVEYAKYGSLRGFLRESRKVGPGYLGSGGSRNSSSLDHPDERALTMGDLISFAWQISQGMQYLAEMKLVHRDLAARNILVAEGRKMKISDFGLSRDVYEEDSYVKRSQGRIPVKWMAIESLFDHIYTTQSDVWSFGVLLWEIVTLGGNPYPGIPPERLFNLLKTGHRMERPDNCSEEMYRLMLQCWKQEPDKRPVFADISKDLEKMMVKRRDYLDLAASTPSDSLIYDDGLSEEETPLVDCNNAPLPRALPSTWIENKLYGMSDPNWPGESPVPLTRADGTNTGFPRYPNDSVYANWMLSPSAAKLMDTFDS
T20 sequence (Q15759 whole entry): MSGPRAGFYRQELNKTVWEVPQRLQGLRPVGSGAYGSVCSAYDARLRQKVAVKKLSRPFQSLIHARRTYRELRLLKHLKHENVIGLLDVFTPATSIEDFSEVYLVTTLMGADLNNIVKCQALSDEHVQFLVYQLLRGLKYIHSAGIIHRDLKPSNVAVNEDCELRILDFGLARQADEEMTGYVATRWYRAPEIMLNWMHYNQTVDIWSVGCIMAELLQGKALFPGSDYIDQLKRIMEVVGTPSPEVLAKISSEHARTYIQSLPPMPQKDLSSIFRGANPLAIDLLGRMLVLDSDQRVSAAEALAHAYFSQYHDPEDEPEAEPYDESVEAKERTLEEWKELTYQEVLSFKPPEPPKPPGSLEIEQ
T24 sequence (Q06187 whole entry): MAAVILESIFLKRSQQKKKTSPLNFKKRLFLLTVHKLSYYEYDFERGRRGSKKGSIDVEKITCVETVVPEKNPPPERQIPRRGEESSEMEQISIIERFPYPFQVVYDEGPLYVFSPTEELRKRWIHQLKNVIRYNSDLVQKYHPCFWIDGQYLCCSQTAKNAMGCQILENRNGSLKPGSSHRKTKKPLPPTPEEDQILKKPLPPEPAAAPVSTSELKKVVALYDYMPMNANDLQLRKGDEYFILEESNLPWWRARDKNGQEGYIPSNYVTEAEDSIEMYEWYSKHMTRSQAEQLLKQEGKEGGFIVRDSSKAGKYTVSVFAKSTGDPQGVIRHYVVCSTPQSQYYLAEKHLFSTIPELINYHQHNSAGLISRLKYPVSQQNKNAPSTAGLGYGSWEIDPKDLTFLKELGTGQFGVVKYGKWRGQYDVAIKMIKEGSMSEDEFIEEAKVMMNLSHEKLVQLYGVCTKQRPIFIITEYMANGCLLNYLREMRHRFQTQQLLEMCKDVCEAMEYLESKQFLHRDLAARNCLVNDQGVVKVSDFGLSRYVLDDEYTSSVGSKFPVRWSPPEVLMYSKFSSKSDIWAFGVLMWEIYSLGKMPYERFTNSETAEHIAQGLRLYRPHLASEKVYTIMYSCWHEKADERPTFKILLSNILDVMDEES
T2 sequence (P42685 whole entry): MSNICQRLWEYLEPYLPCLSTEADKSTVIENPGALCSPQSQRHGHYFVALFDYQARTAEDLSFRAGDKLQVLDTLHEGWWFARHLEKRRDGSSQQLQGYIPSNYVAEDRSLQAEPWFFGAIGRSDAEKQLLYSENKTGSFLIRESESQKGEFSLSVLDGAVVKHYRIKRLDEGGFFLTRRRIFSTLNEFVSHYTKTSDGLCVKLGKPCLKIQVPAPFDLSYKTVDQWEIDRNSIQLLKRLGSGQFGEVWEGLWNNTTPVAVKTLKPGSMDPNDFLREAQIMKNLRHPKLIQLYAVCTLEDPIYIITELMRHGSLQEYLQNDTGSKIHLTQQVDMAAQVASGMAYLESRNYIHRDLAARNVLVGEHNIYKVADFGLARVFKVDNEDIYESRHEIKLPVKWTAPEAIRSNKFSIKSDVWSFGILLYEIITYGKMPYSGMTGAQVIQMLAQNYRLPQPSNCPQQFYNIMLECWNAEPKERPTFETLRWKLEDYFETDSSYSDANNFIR
T4 sequence (Q8TDC3 whole entry): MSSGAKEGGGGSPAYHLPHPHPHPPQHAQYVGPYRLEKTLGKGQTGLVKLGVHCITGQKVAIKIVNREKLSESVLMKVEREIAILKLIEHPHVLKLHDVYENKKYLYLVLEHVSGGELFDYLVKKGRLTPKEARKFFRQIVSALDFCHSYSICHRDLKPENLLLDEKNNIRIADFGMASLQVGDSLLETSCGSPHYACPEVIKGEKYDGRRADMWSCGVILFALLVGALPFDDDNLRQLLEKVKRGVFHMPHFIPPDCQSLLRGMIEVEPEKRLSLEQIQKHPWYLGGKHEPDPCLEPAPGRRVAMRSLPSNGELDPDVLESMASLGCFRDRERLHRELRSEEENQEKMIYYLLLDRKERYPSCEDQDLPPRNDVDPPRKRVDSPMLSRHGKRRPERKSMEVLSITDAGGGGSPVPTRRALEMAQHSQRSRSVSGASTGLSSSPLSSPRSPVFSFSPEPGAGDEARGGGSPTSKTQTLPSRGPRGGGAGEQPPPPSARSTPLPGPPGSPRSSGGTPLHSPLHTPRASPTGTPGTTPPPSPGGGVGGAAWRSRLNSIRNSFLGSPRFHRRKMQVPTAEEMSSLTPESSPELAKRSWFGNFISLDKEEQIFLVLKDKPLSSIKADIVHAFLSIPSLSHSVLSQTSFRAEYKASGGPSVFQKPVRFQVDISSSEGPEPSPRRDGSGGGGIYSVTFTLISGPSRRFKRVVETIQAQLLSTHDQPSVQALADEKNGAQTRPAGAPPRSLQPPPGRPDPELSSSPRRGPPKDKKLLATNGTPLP
T29 sequence (Q8NE63 whole entry): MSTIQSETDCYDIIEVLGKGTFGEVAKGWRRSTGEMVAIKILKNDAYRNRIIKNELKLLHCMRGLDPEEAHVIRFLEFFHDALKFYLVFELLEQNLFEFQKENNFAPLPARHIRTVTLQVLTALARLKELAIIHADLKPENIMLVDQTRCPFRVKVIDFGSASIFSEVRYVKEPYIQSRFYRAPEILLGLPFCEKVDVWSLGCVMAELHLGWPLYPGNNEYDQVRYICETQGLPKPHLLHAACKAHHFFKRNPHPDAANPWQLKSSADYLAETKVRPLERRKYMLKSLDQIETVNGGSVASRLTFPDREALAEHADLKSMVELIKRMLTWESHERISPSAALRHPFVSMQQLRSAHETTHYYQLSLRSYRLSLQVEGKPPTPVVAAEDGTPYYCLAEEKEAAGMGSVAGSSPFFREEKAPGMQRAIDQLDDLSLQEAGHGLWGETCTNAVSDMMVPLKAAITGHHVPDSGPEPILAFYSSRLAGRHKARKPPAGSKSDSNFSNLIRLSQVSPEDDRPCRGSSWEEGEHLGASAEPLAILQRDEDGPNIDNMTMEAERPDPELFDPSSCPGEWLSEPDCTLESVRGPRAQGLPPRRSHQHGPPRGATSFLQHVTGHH
T19 sequence (Q96BR1 whole entry): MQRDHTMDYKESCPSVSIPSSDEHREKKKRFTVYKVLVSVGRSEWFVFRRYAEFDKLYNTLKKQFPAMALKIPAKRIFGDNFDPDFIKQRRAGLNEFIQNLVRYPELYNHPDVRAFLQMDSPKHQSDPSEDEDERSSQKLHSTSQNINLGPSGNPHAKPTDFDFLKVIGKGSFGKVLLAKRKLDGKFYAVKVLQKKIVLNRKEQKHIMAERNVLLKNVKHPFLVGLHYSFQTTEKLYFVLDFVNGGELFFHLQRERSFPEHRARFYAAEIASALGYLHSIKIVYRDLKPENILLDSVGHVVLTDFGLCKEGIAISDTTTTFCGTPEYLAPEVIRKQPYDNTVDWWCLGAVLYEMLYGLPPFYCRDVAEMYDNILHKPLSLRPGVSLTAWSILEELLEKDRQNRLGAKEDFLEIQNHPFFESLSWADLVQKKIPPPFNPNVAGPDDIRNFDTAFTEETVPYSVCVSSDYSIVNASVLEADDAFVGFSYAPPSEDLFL

`COc1cc(C(N)=O)nc(-c2cccc(C#C[C@]3(O)CCN(C)C3=O)c2)c1` [NIK SMI1] was tested, and the “effect in delayed type hypersensitivity study” value (C57BL/6 mice) was “partial effect”, the inhibition at 1 µM (ZAP-70) was 17% and the inhibition at 1 µM (Frk) was 18%. It also gave an inhibition at 1 µM (CDK7/cyclinH) of -5.5%, an inhibition at 1 µM (BrSK1) of 13.5% and an inhibition at 1 µM (DYRK4) of 5.5%. For the same compound, the inhibition at 1 µM (Axl) was 9.3%, the inhibition at 1 µM (CamKII_alpha) was 17.5% and the inhibition at 1 µM (TrkA) was 2.5%. The inhibition at 1 µM (CLK1) was 4.5%, the inhibition at 1 µM (ErbB2) was -1.5% and the inhibition at 1 µM (CHK1) was 14%. The inhibition at 1 µM (MARK3) was 7.5%, the inhibition at 1 µM (MARK1) was 16% and the inhibition at 1 µM (PKC_alpha) was 4.5%. For the same compound, the inhibition at 1 µM (RSK1) was 4.5%, the inhibition at 1 µM (CK1_gamma1) was 2.5% and the inhibition at 1 µM (Ret) was 2%. For the same compound, the inhibition at 1 µM (MST2) was 28%, the inhibition at 1 µM (SGK3) was -0.5% and the inhibition at 1 µM (P38_beta) was 9%. The inhibition at 1 µM (PASK) was 16%, the inhibition at 1 µM (GRK2) was 4.5% and the inhibition at 1 µM (PRAK) was 6%. It also gave an inhibition at 1 µM (BTK) of -3%, an inhibition at 1 µM (PRKAA1) of 20.5% and an inhibition at 1 µM (FGFR1) of -5.5%. The inhibition at 1 µM (ZIPK) was -5.5%, the inhibition at 1 µM (MST4) was 33.5% and the inhibition at 1 µM (HIPK4) was 3%.
